Measured values as given in ChEMBL document CHEMBL3774313, “Natural product-based design, synthesis and biological evaluation of Albiziabioside A derivatives that selectively induce HCT116 cell death” (Eur J Med Chem, 2016).

Legend:
HeLa = assay: Antiproliferative activity against human HeLa cells assessed as cell viability after 72 hrs by MTT assay; assay type: functional, cell-based
MCF7 = assay: Antiproliferative activity against human MCF7 cells assessed as cell viability after 72 hrs by MTT assay; assay type: functional, cell-based; details: MCF7, 72 h
HepG2 = assay: Antiproliferative activity against human HepG2 cells assessed as cell viability after 72 hrs by MTT assay; assay type: functional, cell-based; details: HepG2, 72 h
A549 = assay: Antiproliferative activity against human A549 cells assessed as cell viability after 72 hrs by MTT assay; assay type: functional, cell-based; details: A549, 72 h
[1] = Antiproliferative activity against human HCT116 cells assessed as cell viability after 72 hrs by MTT assay; assay type: functional, cell-based; details: HCT-116, 72 h
[2] = Antiproliferative activity against human HL60 cells assessed as cell viability after 72 hrs by MTT assay; assay type: functional, cell-based; details: HL-60, 72 h
[3] = Cytotoxicity against human HBMEC cells assessed as cell viability after 72 hrs by MTT assay; assay type: cell-based
[4] = Cytotoxicity against human LO2 cells assessed as cell viability after 72 hrs by MTT assay; assay type: cell-based; details: L02, 72 h
[5] = Cytotoxicity against human CCD-841-CoN cells assessed as cell viability after 72 hrs by MTT assay; assay type: cell-based
HaCaT = assay: Cytotoxicity against human HaCaT cells assessed as cell viability after 72 hrs by MTT assay; assay type: cell-based
[6] = Cytotoxicity against human BEAS2B cells assessed as cell viability after 72 hrs by MTT assay; assay type: cell-based; details: BEAS-2B
[7] = Cell cycle arrest in human HCT116 cells assessed as accumulation at G1 phase at 2 uM after 72 hrs by Propidium iodide staining-based flow cytometric analysis (reference value: 57.02 %); assay type: functional; details: HCT-116
[8] = Cell cycle arrest in human HCT116 cells assessed as accumulation at G2 phase at 2 uM after 72 hrs by Propidium iodide staining-based flow cytometric analysis (reference value: 5.69 %); assay type: functional; details: HCT-116
[9] = Cell cycle arrest in human HCT116 cells assessed as accumulation at S phase at 2 uM after 72 hrs by Propidium iodide staining-based flow cytometric analysis (reference value: 37.29 %); assay type: functional; details: HCT-116
[10] = Cell cycle arrest in human HCT116 cells assessed as accumulation at G1 phase at 4 uM after 72 hrs by Propidium iodide staining-based flow cytometric analysis (reference value: 57.02 %); assay type: functional; details: HCT-116
[11] = Cell cycle arrest in human HCT116 cells assessed as accumulation at G2 phase at 4 uM after 72 hrs by Propidium iodide staining-based flow cytometric analysis (reference value: 5.69 %); assay type: functional; details: HCT-116
[12] = Cell cycle arrest in human HCT116 cells assessed as accumulation at S phase at 4 uM after 72 hrs by Propidium iodide staining-based flow cytometric analysis (reference value: 37.29 %); assay type: functional; details: HCT-116
[13] = Cell cycle arrest in human HCT116 cells assessed as accumulation at G1 phase at 8 uM after 72 hrs by Propidium iodide staining-based flow cytometric analysis (reference value: 57.02 %); assay type: functional; details: HCT-116
[14] = Cell cycle arrest in human HCT116 cells assessed as accumulation at G2 phase at 8 uM after 72 hrs by Propidium iodide staining-based flow cytometric analysis (reference value: 5.69 %); assay type: functional; details: HCT-116
[15] = Cell cycle arrest in human HCT116 cells assessed as accumulation at S phase at 8 uM after 72 hrs by Propidium iodide staining-based flow cytometric analysis (reference value: 37.29 %); assay type: functional; details: HCT-116
HCT-116 [16] = assay: Induction of apoptosis in human HCT116 cells assessed as viable cells at 2 uM after 72 hrs by Annexin V/Propidium iodide staining based flow cytometric analysis (reference value: 92.47 %); assay type: functional; details: HCT-116, 72 h, read-out: Activity
HCT-116 [17] = assay: Induction of apoptosis in human HCT116 cells assessed as early apoptotic cells at 2 uM after 72 hrs by Annexin V/Propidium iodide staining based flow cytometric analysis (reference value: 5.07 %); assay type: functional
HCT-116 [18] = assay: Induction of apoptosis in human HCT116 cells assessed as late apoptotic cells at 2 uM after 72 hrs by Annexin V/Propidium iodide staining based flow cytometric analysis (reference value: 1.49 %); assay type: functional
HCT-116 [19] = assay: Induction of apoptosis in human HCT116 cells assessed as necrotic cells at 2 uM after 72 hrs by Annexin V/Propidium iodide staining based flow cytometric analysis (reference value: 0.97 %); assay type: functional
HCT-116 [20] = assay: Induction of apoptosis in human HCT116 cells assessed as viable cells at 4 uM after 72 hrs by Annexin V/Propidium iodide staining based flow cytometric analysis (reference value: 92.47 %); assay type: functional; details: HCT-116, 72 h, read-out: Activity
HCT-116 [21] = assay: Induction of apoptosis in human HCT116 cells assessed as early apoptotic cells at 4 uM after 72 hrs by Annexin V/Propidium iodide staining based flow cytometric analysis (reference value: 5.07 %); assay type: functional
HCT-116 [22] = assay: Induction of apoptosis in human HCT116 cells assessed as late apoptotic cells at 4 uM after 72 hrs by Annexin V/Propidium iodide staining based flow cytometric analysis (reference value: 1.49 %); assay type: functional
HCT-116 [23] = assay: Induction of apoptosis in human HCT116 cells assessed as necrotic cells at 4 uM after 72 hrs by Annexin V/Propidium iodide staining based flow cytometric analysis (reference value: 0.97 %); assay type: functional
HCT-116 [24] = assay: Induction of apoptosis in human HCT116 cells assessed as viable cells at 8 uM after 72 hrs by Annexin V/Propidium iodide staining based flow cytometric analysis (reference value: 92.47 %); assay type: functional; details: HCT-116, 72 h, read-out: Activity
HCT-116 [25] = assay: Induction of apoptosis in human HCT116 cells assessed as early apoptotic cells at 8 uM after 72 hrs by Annexin V/Propidium iodide staining based flow cytometric analysis (reference value: 5.07 %); assay type: functional
HCT-116 [26] = assay: Induction of apoptosis in human HCT116 cells assessed as late apoptotic cells at 8 uM after 72 hrs by Annexin V/Propidium iodide staining based flow cytometric analysis (reference value: 1.49 %); assay type: functional
HCT-116 [27] = assay: Induction of apoptosis in human HCT116 cells assessed as necrotic cells at 8 uM after 72 hrs by Annexin V/Propidium iodide staining based flow cytometric analysis (reference value: 0.97 %); assay type: functional
HCT-116 [28] = assay: Induction of apoptosis in human HCT116 cells assessed as mitochondrial membrane potential at 2 uM after 72 hrs by JC-1 staining based flow cytometric analysis (reference value: 98.02 %); assay type: functional
HCT-116 [29] = assay: Induction of apoptosis in human HCT116 cells assessed as mitochondrial membrane potential at 4 uM after 72 hrs by JC-1 staining based flow cytometric analysis (reference value: 98.02 %); assay type: functional
HCT-116 [30] = assay: Induction of apoptosis in human HCT116 cells assessed as mitochondrial membrane potential at 8 uM after 72 hrs by JC-1 staining based flow cytometric analysis (reference value: 98.02 %); assay type: functional
HCT-116 [31] = assay: Induction of apoptosis in human HCT116 cells assessed as decrease in mitochondrial membrane potential after 72 hrs by JC-1 staining based flow cytometric analysis; assay type: functional, cell-based

- IC50 (HeLa): > 50 µM
- IC50 (MCF7): > 50 µM
- IC50 (HepG2): > 50 µM
- IC50 (A549): > 50 µM
SMILES: CC(C)c1ccc(/C=C/C(=O)N[C@H]2[C@H](O[C@H]3CC[C@]4(C)[C@H]5CC=C6[C@@H]7CC(C)(C)CC[C@]7(C(=O)O)CC[C@@]6(C)[C@]5(C)CC[C@H]4C3(C)C)O[C@H](CO[C@@H]3OC[C@H](O)[C@H](O)[C@H]3O)[C@@H](O)[C@@H]2O)cc1
- IC50 [1]: 7.6 µM
- IC50 [2]: > 50 µM
- IC50 [3]: > 50 µM
- IC50 [4]: > 50 µM
- IC50 [5]: > 50 µM
- IC50 (HaCaT): > 50 µM
- IC50 [6]: > 50 µM
- Activity [7]: 53.8%
- Activity [8]: 9.86%
- Activity [9]: 36.4%
- Activity [10]: 46.5%
- Activity [11]: 11.4%
- Activity [12]: 42.1%
- Activity [13]: 40.8%
- Activity [14]: 16.5%
- Activity [15]: 42.8%
- viability at 2 µM (HCT-116 [16]): 81.6%
- Activity (HCT-116 [17]): 4.51%
- Activity (HCT-116 [18]): 12.21%
- Activity (HCT-116 [19]): 1.67%
- viability at 4 µM (HCT-116 [20]): 63.3%
- Activity (HCT-116 [21]): 5.4%
- Activity (HCT-116 [22]): 28%
- Activity (HCT-116 [23]): 3.34%
- viability at 8 µM (HCT-116 [24]): 28.3%
- Activity (HCT-116 [25]): 40.8%
- Activity (HCT-116 [26]): 27%
- Activity (HCT-116 [27]): 3.9%
- Activity (HCT-116 [28]): 86.87%
- Activity (HCT-116 [29]): 73.55%
- Activity (HCT-116 [30]): 47.79%
- Activity (HCT-116 [31]): Dose-dependent effect
